Data taken from paper PMC10447463, “Data-mining unveils structure–property–activity correlation of viral infectivity enhancing self-assembling peptides” (Nature Communications, 2023).

Legend:
[1] = Aggregate analysis by widefield fluorescence microscopy; assay type: physicochemical
Description: 4 µL of 1 mg/mL peptide fibrils solution is added to a 20 µL, 50 µM ThT–solution in PBS. The mixture is incubated for 15 min at RT to allow binding of ThT dye with β–sheet rich structures. For reference PBS (4 µL) was added instead of peptide fibril solution. The samples were placed in black UV Star® 384 microliter well–plates (Greiner bio–one). Fluorescence spectra were recorded on an Infinite® M1000 PRO microplate reader (Tecan) at λem = 488 nm upon excitation at λex = 440 nm with 10 nm bandwidths and multiple reads per well (3×3). Measurements were repeated in triplicates and averaged with standard deviation. A peptide fibril was considered as ThT-active if the fluorescence intensity was at least twice as strong compared to the control (PBS containing 10% DMSO). Zeta-Potential. For the determination of the surface charge of aggregated peptides zeta-potential measurements were conducted with a Zetasizer Nano ZS, Malvern Instruments. Unless stated otherwise the peptides were dissolved from DMSO (10 mg/mL) in PBS (pH 7.4) to concentration of 1 mg/mL and incubated for 1d at RT. Just before the measurement the 60 µL of the peptides were further diluted in 600 µL KCl (aq, 1 mM) in a 1 mL disposable folded capillary cells (DTS–1060, Zetasizer Nano series, Malvern). The zeta potential of the peptides was derived from the electrophoretic mobility based on the Smoluchowski formula. All measurements were averaged over two individually performed experiments and conducted in triplicates for each sample. Aggregate analysis. […] Furthermore, fluorescence microscopy was conducted by staining 1 µL preformed fibrils (1 mg/mL) with 9 µL ThT (50 µM). Brightfield microscopy was performed simultaneously to evaluate aggregation also for non ThT-active fibrils. The measurements were performed on a Leica DMi8 microscope with 10x air objective and equipped with a Leica MC170 HD camera with a filter setting λem = 527/30 nm upon excitation at λex = 480/40 nm) and processed with the Leica LASX software. To quantify size and number of microscopic aggregation of particles > 10 µm^2 at least 3 independently measured images were analyzed via the 3D object counter analysis tool of ImageJ, v 1.53f51. Sum–frequency generation. The SFG experiments were carried out with a femtosecond Ti: Sapphire amplified laser system (Spitfire Ace, Spectra–Physics, 800 nm, 40 fs, 1 kHz) with 5 W output power. We used 2 W to pump an optical parametric amplifier (TOPAS, light conversion) with a non–collinear difference frequency generation stage to generate broadband IR pulses. Another 1 W of the laser output passed through an etalon to generate narrowband visible pulses (10 cm^-1). The incident angles of the visible and IR beams were 36° and 41° with respect to the surface normal, respectively. The visible (13 µJ) and IR (5 µJ) pulses were overlapped spatially and temporally at the sample position. Subsequently, the generated SFG pulse was guided into a spectrograph (Acton SP 300i, Princeton Instruments), and detected with an EMCCD (Newton, Andor Technology). To avoid IR absorption of water vapor, we purged N2 for the measurement. All spectra were collected in the ssp (denoting s-, s- and p-polarized SFG, visible and IR, respectively) polarization combination. The spectra were normalized to the non–resonant signal taken from z–cut quartz after subtracting a background spectrum.
Table S8 Summary of aggregate analysis from widefield microscopy measurements (Figure S32). The Number of aggregated peptides, the median size area, average size area
and the cumulative total size area of all particles (> 10 µm2) in an area of 1330 µm × 1330 µm was determined via automated 3D object counting (ImageJ) in triplicate
measurements (Std. Dev.).
Aggregate Std. Dev. Std. Dev. Std. Dev. Std. Dev.
Sequence Abs. Inf. / Std. Dev. / Count Rate / Std. Dev. Number Aggregate Median Area Median Area Average Area Average Area Total Area/ Total Area/ […]

[2] = Turbidity, derived count rate of scattered light; assay type: physicochemical; settings: for Count Rate: derived count rate of scattered light (turbidity); for Log10 Count Rate: turbidity, derived count rate of scattered light, data of Figure 2D
[3] = Fig S8 panels A, C, 3 fields of 1330 µm x 1330 µm
[4] = Fig S8 panels B, D, average aggregate area, 3 fields of 1330 µm x 1330 µm
[5] = Fig S8 panels B, D, median aggregate area, 3 fields of 1330 µm x 1330 µm
[6] = Fig S8 panels B, D, 3 fields of 1330 µm x 1330 µm
[7] = Fig S8 panels B, D, widefield fluorescence microscopy, 3 fields of 1330 µm x 1330 µm

Row | Substance | Avg Area in 3 *(1330 µm *1330 µm) ([1]; Fig S8 panels A, C) | Log 10 Number of aggregates in 3 * (1330 µm *1330 µm) ([1]; Fig S8 panels A, C) | Median Area in 3 * (1330 µm *1330 µm) ([1]; Fig S8 panels A, C) | log Avg Area in 3 * ( (1330 µm *1330 µm)) ([1]; Fig S8 panels A, C) | log Median Area in 3 * ( (1330 µm *1330 µm)) ([1]; Fig S8 panels A, C) | log Total Area of all particles in 3 * (1330 µm *1330 µm) ([1]; Fig S8 panels A, C) | Number of aggregates in 3 * (1330 µm *1330 µm) [1, 3] | Avg Area in 3 *(1330 µm *1330 µm) [1, 4] | Median Area in 3 * (1330 µm *1330 µm) [1, 5] | Total Area of all particles in 3 * (1330 µm *1330 µm) [1, 6] | Number of aggregates in 3 * (1330 µm *1330 µm) [1, 7] | Count Rate [2] | Log10 Count Rate [2]
1 | CHLHLQL [CN9] | 330.1 | 1.5563 | 35.7 | 2.5187 | 1.553 | 4.075 | 36 | 330.1 | 35.7 | 11885.21533 | 36 | – | –
2 | CKAKAQANMWQ [BL8] | 857.7 | 0.8016 | 479.9 | 2.933 | 2.681 | 3.735 | 6.333 | 857.7 | 479.9 | 5432 | 6.333 | – | –
3 | CKFKFQF [BL4] | 86.55 | 2.108 | 22.111 | 1.937 | 1.345 | 4.0456 | 128.3 | 86.55 | 22.111 | 11106.98933 | 128.3 | – | –
4 | CKFKFQFNM [BL3] | 19.89 | 2.2313 | 11.55 | 1.299 | 1.063 | 3.53 | 170.3 | 19.89 | 11.55 | 3388 | 170.3 | – | –
5 | CKFKFQFW [TM72] | 28.12 | 2.713 | 16.689 | 1.449 | 1.222 | 4.162 | 517 | 28.12 | 16.689 | 14537.202 | 517 | – | –
6 | CKFKQFF [CK15] | 2578 | 0.7533 | 2243 | 3.411 | 3.351 | 4.165 | 5.667 | 2578 | 2243 | 14606.95267 | 5.667 | – | –
7 | CKFKQFFNM [CK14] | 31.08 | 2.848 | 15.21 | 1.4925 | 1.182 | 4.34 | 704 | 31.08 | 15.21 | 21881.13867 | 704 | – | –
8 | CKIKIQI [MG3b] | 58.72 | 2.501 | 16.48 | 1.7688 | 1.2169 | 4.27 | 317 | 58.72 | 16.48 | 18614.711 | 317 | – | –
9 | CKIKIQINMWQ | – | – | – | – | – | – | – | – | – | – | – | 1881 | 3.274
10 | CKIKQII [MG4a] | 110.6 | 1.8789 | 36.476 | 2.044 | 1.562 | 3.923 | 75.67 | 110.6 | 36.476 | 8372.136 | 75.67 | – | –
11 | CKIKQIINMWQ [MG5a / CK17] | 183.3 | 2.289 | 91.75 | 2.263 | 1.963 | 4.553 | 194.7 | 183.3 | 91.75 | 35686.92633 | 194.7 | – | –
12 | KFKFQFNMW | – | – | – | – | – | – | – | – | – | – | – | 610.2 | 2.785
13 | KLKQLL | – | – | – | – | – | – | – | – | – | – | – | 319.9 | 2.505
14 | RGDKIKIQI | – | – | – | – | – | – | – | – | – | – | – | 298.1 | 2.474
